Experimental data: patent US20100120788A1, “IDENTIFICATION OF POLYNUCLEOTIDES FOR […] OF COMPOUNDS THAT […] WITH AND/OR MODULATE PROTEIN TYROSINE KINASES AND/OR PROTEIN TYROSINE KINASE […] IN PROSTATE CELLS” (Bristol-Myers Squibb Company, priority 2007, published 2010)

What was measured:
[1] = system: secreted uPA protein in PC3 cells; experiment: uPA protein ELISA assay of culture medium; format: cell-based, human; conditions: different doses, 24 h, per 50,000 viable cells
Description: FIG. 3. PLAU gene expression and regulation by dasatinib analyzed at mRNA and protein levels. (A) Differential baseline expression of PLAU gene between resistant (R, in black) and sensitive (S, in red) cell lines. The X-values are the expression level in log2-scale. The resistant cell line expressing high level of PLAU was WPMY1 and the sensitive cell line expressing low level of PLAU was LNCaP. (B) Down-regulation of PLAU mRNA level by dasatinib-treatment in 5 sensitive cell lines. The cells were treated with 100 nM dasatinib (+D) or DMSO (Ctrl) for 48 hours. The p value was 0.048 in paired t-test, indicating a significant reduction of PLAU mRNA following dasatinib treatment. (C) Correlation between dasatinib-induced PLAU mRNA down-regulation with the sensitivity of cell lines to dasatinib. […] The amount of uPA protein secreted into the culture medium by 50,000 viable cells was assessed by ELISA assay. […]
Cell were seeded in 24-well plates at density of 25,000 cells/well. […] Total number of cells were also quantitated using a cell counter, and the number of viable cells were assessed with Trypan Blue. The amount of uPA protein in the supernatant was determined using the uPA ELISA kit (America Diagnostica, Stamford, Conn.), and the concentrations of uPA secreted by 50,000 viable cells into the medium were calculated.

[2] = system: imatinib-resistant BCR-ABL mutants; conditions: number of mutants of those tested; cited from earlier work

Structure (SMILES)	amount of uPA protein secreted into the growth medium [1]	imatinib-resistant BCR-ABL mutants against which significantly active [2]
CC(=O)O[C@H]1C(=O)[C@@]2(C)[C@H]([C@H](OC(=O)c3ccccc3)[C@]3(O)C[C@H](OC(=O)[C@H](O)[C@@H](NC(=O)c4ccccc4)c4ccccc4)C(C)=C1C3(C)C)[C@]1(OC(C)=O)CO[C@@H]1C[C@@H]2O [TAXOL®]	did not see a dose-dependent reduction	–
Cc1cn(-c2cc(NC(=O)c3ccc(C)c(Nc4nccc(-c5cccnc5)n4)c3)cc(C(F)(F)F)c2)cn1 [AMN107]	–	32/33
